In patent publication EP1105728B1, “MODULATING MULTIPLE LINEAGE KINASE PROTEINS” (CEPHALON, INC., priority 1998, dated 2000):
Like-named read-outs stand apart in the source and are kept apart here.

What was measured:
motoneurons = assay: Survival of rat spinal cord cultures enriched for motoneurons (calcein AM); assay type: cell-based; conditions: data not shown
Protocol: Spinal cords were dissected from Sprague-Dawley rat fetuses (Charles River Laboratories, Wilmington. MA) of embryonic age (E) 14.5-15. […] Cells were seeded onto 96-well plates previously coated with poly-1-omithine and laminin (5 ug/ml each) at a density of 6 x 10^4 cells/cm^2 in chemically defined serum-free N2 medium (Bottenstein, et al., 1979, supra). In order to separate attachment from survival effects, addition of compounds to cultures was made after an initial attachment period of 1-3 h. Neuronal survival was assessed after 4 d by using calcein AM (Molecular Probes, Eugene, OR) in a fluorometric viability assay (Bozyczko-Coyne, et al., 1993, supra). Microscopic counts of neurons correlated directly with relative fluorescence values. In brief, culture medium was serially diluted in DPBS (Dulbeccos phosphate buffered saline) and a final concentration of 6 uM calcein AM stock was then added to each 96-well. The plates were incubated for 30 min at 37°C, followed by serial dilution washes in DPBS. The fluorescent signal was read using a plate-reading fluorimeter from Millipore (Cytofluor 2350) at excitation=485 nm and emission = 538 nm. […] Linearity of the fluorescence signal was verified for the concentration and incubation time for the range of cell densities in these experiments. […]

JNK = JNK activity immunoprecipitated from THP-1 cells; assay type: cell-based; conditions: Homo sapiens, read-out: THP-1 Cells JNK % inh. 500 nM
Protocol: Assays for JNK activity were performed after immunoprecipitating the JNK protein from an extract of lysed THP-1 cells. Pelleted THP-1 cells were lysed on ice for 15 min in 500 µl of Frac buffer (10 mM Tris-Hcl, pH 7.5,50 mM NaCl, 30 µM sodium pyrophosphate, 1 mg/ml BSA, 1% Triton-X-100). The extract was centrifuged for 10 min at 14K and 5 µl of JNK antibody (Santa Cruz) was added to the supernatant. The extract was rotated for 60 min at 4°C, 75 µl of washed protein A Sepharose (20% w/v in Frac) added and the extract rotated another 30 min to bind the antibody complex to the protein A Sepharose. The protein A Sepharose was washed twice with Frac buffer, once with 20 mM Hepes, pH 7.6, 20 mM MgCl2, 2 mM DTT, then incubated for 15 min at 30° C in 30 µl of kinase buffer (20 mM hepes, 20 mM MgCl2, 2 MM DTT, 1 µg recombinant c-jun, and 2 µM ATP-γ-^32P, 2 µCi. The reaction was terminated by the addition of 10 µl of 4X SDS gel loading buffer, heated for 3 min at 80° C, and the proteins were analyzed on a 10% SDS gel. The gel was dried, exposed to a Phosphorimager plate, and the radioactive bands were analyzed on a Phosphorimager.

TNF-α = assay: Induction of TNF-α by LPS in THP-1 cells (ELISA); assay type: cell-based; conditions: Homo sapiens
Protocol: THP-1 cells were grown in RPMI 1640 medium supplemented with 10% fetal bovine serum. LPS (E.coli serotype 0111.B4, TCA extracted) was purchased from Sigma and dissolved in PBS. ELISA kits for assaying IL-1 and TNF-α were purchased from Boerhinger-Mannheim and assays on THP-1 culture medium were performed as directed by the manufacturer. Standard curves according to directions were obtained with each assay.
Experiments were performed in 12 well culture plates with either 1 or 2 ml of THP-1 cells at 4 X 10^5 cells/ml. IL-1 and TNF-α were induced by the addition of LPS to the culture medium and the medium collected at various times thereafter for cytokine assay. Cells were removed by centrifugation and the supernatants frozen at -70°C until assay. To minimize costs experiments were performed in duplicate cultures and the duplicate supernatants were pooled after centrifugation. Each pooled supernatant was assayed in duplicate. Stock solutions of indolo- and fused pyrrolocarbazoles in 100% DMSO were diluted to the desired concentrations in either medium containing 10% fetal bovine serum or in medium containing 0.5 mg/ml BSA. Unless otherwise stated, compounds were added to the THP-1 cells 1 hr prior to the addition of LPS.

trkA tyrosine kinase = trkA tyrosine kinase (Homo sapiens, UniProt P04629); conditions: Maroney et al.; Kaneko et al.; cited from earlier work
trkA tyrosine kinase, sequence (P04629 33-796): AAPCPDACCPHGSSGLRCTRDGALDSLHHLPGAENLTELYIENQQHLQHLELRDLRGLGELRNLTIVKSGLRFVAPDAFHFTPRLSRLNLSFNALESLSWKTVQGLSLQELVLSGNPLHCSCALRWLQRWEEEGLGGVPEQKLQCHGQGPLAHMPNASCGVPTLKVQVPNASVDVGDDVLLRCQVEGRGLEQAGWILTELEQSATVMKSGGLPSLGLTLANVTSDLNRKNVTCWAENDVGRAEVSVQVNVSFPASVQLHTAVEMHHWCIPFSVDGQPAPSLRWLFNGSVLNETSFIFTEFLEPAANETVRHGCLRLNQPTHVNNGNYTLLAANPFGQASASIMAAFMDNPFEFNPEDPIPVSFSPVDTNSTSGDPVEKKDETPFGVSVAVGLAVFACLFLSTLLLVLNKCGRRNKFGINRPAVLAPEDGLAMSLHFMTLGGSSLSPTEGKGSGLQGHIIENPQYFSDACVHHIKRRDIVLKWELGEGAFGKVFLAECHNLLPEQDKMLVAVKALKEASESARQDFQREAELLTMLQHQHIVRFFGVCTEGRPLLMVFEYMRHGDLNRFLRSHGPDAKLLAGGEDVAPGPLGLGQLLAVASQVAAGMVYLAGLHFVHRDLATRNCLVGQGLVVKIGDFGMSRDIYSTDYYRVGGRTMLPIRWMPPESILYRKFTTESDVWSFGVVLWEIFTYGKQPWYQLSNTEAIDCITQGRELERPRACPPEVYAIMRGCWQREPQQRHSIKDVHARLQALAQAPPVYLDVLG

[1] = test system: sympathetic ganglion neurons (SG); assay: Survival of chick embryonic sympathetic ganglion neurons; assay type: cell-based
Protocol: Paravertebral sympathetic ganglia (SG; embryonal day 12 (E12)), dorsal root ganglia (DRG;E9), and ciliary ganglia (CG;E8) were dissected from chick embryos at the indicated embryonic day as described in Lindsay, et al., Dev. Biol., 1985, 112, 319-328, which is incorporated herein by reference in its entirety. After trypsinization and dissociation, the nerve cell suspensions were plated onto polyomithine-laminin-coated culture dishes in Ham's F14 culture medium, supplemented with 10% horse serum. Immediately after plating, survival factors were added at the following concentrations: Nerve growth factor (NGF), 20 ng/ml; ciliary neutrophic factor (CNTF), 10 ng/ml. The cultures were maintained at 37° and 5% CO2 in a humidified environment.
Neurons were plated in 35 mm culture dishes with grids (Nunc). Selected areas of each dish comprising together about 10% of the surface scanned for the presence of phase bright cells immediately after plating and again after 48 h to assess survival percentages. Cell survival was confirmed by vital staining with trypan blue (not shown).

[2] = test system: intact embryonic dorsal root ganglia; assay: Neurite outgrowth from intact dorsal root ganglia; assay type: cell-based, chick; conditions: 250 nM Compound III-3 or 20 ng/ml NGF; 48 h
Protocol: Ganglia were placed in 96 well plates previously coated with poly-1-omithine and laminin (5 µg each/ml phosphate buffered saline) in serum-free N2 medium (Bottenstein, et al., Proc. Natl. Acad. Sci. USA, 1979, 76, 514-517, which is incorporated herein by reference in its entirety) containing 0.05% bovine serum albumin (BSA) and maintained for 48 h at 37° and 5% CO2 in a humidified environment. Treated ganglia received either 250 nM Compound III-3 or 20 ng/ml NGF 2 h after plating.

## CCSCc1ccc2c(c1)c1c3c(c4c5cc(CSCC)ccc5n5c4c1n2C1CC(O)(C(=O)OC)C5(C)O1)CNC3=O (stereo not drawn) [III-3]
motoneurons
  potency in mediating survival in motor neuron-enriched cultures relative to K-252a: approximately fivefold
JNK
  inhibition at 0.5 µM: 93%
TNF-α; THP-1, LPS 2 µg/ml, serum-free medium, read-out: THP-1 Cells TNF-α IC50
  IC50: 0.029 µM
TNF-α; THP-1 cells, medium containing 10% fetal bovine serum, read-out: IC50 inhibition of the induction of TNF-α
  IC50: 0.139 µM
trkA tyrosine kinase
  inhibitory activity against trkA tyrosine kinase: did not exhibit inhibitory activity
[1]; 10% serum (Fig. 16)
  concentration at which the survival effect reached a plateau: around 1 µM
[1]; after 48 h, Compound III-3 1 µM, NGF 20 ng/ml, 10% serum
  SG neurons alive: 94%
[1]; after four days
  SG survival: 83%
[2]
  neurite outgrowth from intact dorsal root ganglia: Neurites grew
